This note sets out measurements from ChEMBL document CHEMBL4177686, “Depsidone and xanthones from Garcinia xanthochymus with hypoglycemic activity and the mechanism of promoting glucose uptake in L6 myotubes” (Bioorg Med Chem, 2017).

For series [1], the system named is L6. The experiment in a line: Cytotoxicity against rat L6 cells assessed as reduction in cell viability at 25 uM after 4 hrs by MTT assay. It counts as cell-based. The conditions noted are these: l6, 4 h. On the technique in general: Tetrazolium dyes change colour on reduction, which living cells bring about.
For series [2], the system named is L6. The experiment in a line: Increase in glucose uptake in rat L6 cells at 25 uM treated for 4 hrs post 15 mins PI3K inhibitor wortmanin treatment. It counts as functional, cell-based.
In series [3] the test system is L6. The experiment in a line: Activation of PI3K/AKT/AMPK in rat L6 cells transfected with mOrange dye-based IRAP assessed as increase in GLUT4 translocation at 25 uM measured every 5 mins for 30 mins post 15 mins PI3K inhibitor wortmanin treatment by confocal microscopic analysis. Format: cell-based.
Series [4] concerns L6. The experiment in a line: Activation of AMPK phosphorylation in rat L6 cells assessed as ACC phosphorylation at Ser 79 residues at 12.5 to 25 uM by Western blot analysis. Format: cell-based.
Series [5] concerns L6. The experiment in a line: Increase in glucose uptake in rat L6 cells at 25 uM after 2 to 4 hrs. It counts as functional, cell-based.
The test system of series [6] is L6. The experiment in a line: Activation of PI3K/AKT/AMPK in rat L6 cells transfected with mOrange dye-based IRAP assessed as increase in GLUT4 translocation at 25 uM measured every 5 mins for 30 mins by confocal microscopic analysis relative to basal control. Format: cell-based.
Series [7] deals with RAC-alpha serine/threonine-protein kinase (Rattus norvegicus) (UniProt P47196). The experiment in a line: Activation of AKT in rat L6 cells assessed as GSK3beta phosphorylation at Ser 9 residues at 12.5 to 25 uM by Western blot analysis. It counts as cell-based. (A western blot detects proteins with antibodies after separation by electrophoresis.)
Chain of RAC-alpha serine/threonine-protein kinase (Rattus norvegicus) (P47196 whole entry): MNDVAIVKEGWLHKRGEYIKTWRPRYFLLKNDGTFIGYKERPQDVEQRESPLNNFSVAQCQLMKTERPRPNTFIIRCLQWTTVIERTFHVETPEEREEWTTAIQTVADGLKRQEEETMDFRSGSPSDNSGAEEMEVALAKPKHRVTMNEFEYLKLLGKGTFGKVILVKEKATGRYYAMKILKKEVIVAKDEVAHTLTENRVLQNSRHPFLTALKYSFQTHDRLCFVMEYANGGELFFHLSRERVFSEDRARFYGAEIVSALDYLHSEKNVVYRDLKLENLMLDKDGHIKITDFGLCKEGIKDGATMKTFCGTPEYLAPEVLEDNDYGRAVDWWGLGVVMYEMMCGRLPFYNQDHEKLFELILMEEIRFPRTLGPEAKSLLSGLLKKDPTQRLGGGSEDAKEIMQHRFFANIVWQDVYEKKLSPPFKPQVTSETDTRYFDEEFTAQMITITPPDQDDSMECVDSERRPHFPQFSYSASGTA
Series [8] deals with L6. The experiment in a line: Increase in glucose uptake in rat L6 cells at 100 uM after 4 hrs. Format: functional, cell-based.
Series [9] relates to L6. The experiment in a line: Induction of AMPK phosphorylation at […] residues in rat L6 cells at 12.5 to 25 uM by Western blot analysis. It counts as cell-based.
Series [10] deals with L6. The experiment in a line: Increase in glucose uptake in rat L6 cells at 25 uM treated for 4 hrs post 30 mins AMPK inhibitor compound C treatment. It counts as functional, cell-based.
Series [11] deals with L6. The experiment in a line: Cytotoxicity against rat L6 cells assessed as reduction in cell viability at 1 to 100 uM after 4 hrs by MTT assay. It counts as cell-based. Conditions: l6, 4 h.
Series [12] deals with L6. The experiment in a line: Increase in glucose uptake in rat L6 cells at 25 to 100 uM after 4 hrs. Format: functional, cell-based.
Series [13] has as its target RAC-alpha serine/threonine-protein kinase (Rattus norvegicus) (UniProt P47196). The experiment in a line: Induction of AKT phosphorylation at Ser 473 residues in rat L6 cells at 12.5 to 25 uM by Western blot analysis. Format: cell-based.
In series [14] the test system is L6. The experiment in a line: Increase in glucose uptake in rat L6 cells at 10 to 25 uM after 4 hrs. It counts as functional, cell-based.
The test system of series [15] is L6. The experiment in a line: Increase in glucose uptake in rat L6 cells at 25 uM after 4 hrs relative to control. It counts as functional.
Series [16] deals with L6. The experiment in a line: Increase in glucose uptake in rat L6 cells at <10 uM after 4 hrs. Format: functional, cell-based.
Series [17] concerns L6. The experiment in a line: Activation of PI3K/AKT/AMPK in rat L6 cells transfected with mOrange dye-based IRAP assessed as increase in GLUT4 translocation at 25 uM measured every 5 mins for 30 mins post 30 mins AMPK inhibitor compound C treatment by confocal microscopic analysis. Format: cell-based.
Series [18] relates to L6. The experiment in a line: Activation of AMPK in rat L6 cells assessed as ACC phosphorylation at Ser 79 residues at 25 uM by Western blot analysis. It counts as cell-based.
Series [19] concerns the target RAC-alpha serine/threonine-protein kinase (Rattus norvegicus) (UniProt P47196). The experiment in a line: Induction of AKT phosphorylation at Ser 473 residues in rat L6 cells by Western blot analysis. It counts as cell-based.
Series [20] relates to L6. The experiment in a line: Induction of AMPK phosphorylation at […] residues in rat L6 cells at 25 uM by Western blot analysis. It counts as cell-based.
Series [21] has as its system L6. The experiment in a line: Increase in glucose uptake in rat L6 cells at 2 mM after 4 hrs relative to control. It counts as functional.
Series [22] relates to L6. The experiment in a line: Increase in glucose uptake in rat L6 cells at 2 mM treated for 4 hrs post 30 mins AMPK inhibitor compound C treatment. Format: functional, cell-based.

Molecules are shown by their SMILES. Activity calls are given as the source filed them. The rule behind the calls is not given here.

For the compound `C=CC(C)(C)c1cc(O)c(O)c2c(=O)c3cc(CC=C(C)C)c(O)c(O)c3oc12`, the Activity result in the series with L6 [1] is “Non-Toxic”; in the series on L6 [11], “Non-Toxic”; in the series on L6 [15] it was 166.2%. Also, the outcome (in the series on L6 [2]; in the series with L6 [4]; with L6 [5]; in the series with L6 [6]; in series [7]; in the series on L6 [9]) was Active. For the same compound, the result (in the series on L6 [10]; in series [13]; in the series on L6 [14]) was Active. Further, the outcome in the series with L6 [3], in the series on L6 [8], with L6 [12], in the series on L6 [16] and with L6 [17] was inactive.

Turning to `COc1cc(O)c2c(=O)c3cccc(O)c3oc2c1`, the Activity entry with L6 [1] was “Non-Toxic”.

As to `CC(C)=CCC/C(C)=C/Cc1c(O)cc2c(c1O)C(=O)Oc1c(CC=C(C)C)cc(O)c(O)c1O2`, in the series with L6 [1], the Activity entry is recorded as “Non-Toxic”.

Take `CC(C)=CCc1c(O)c(O)c2oc3c(CC=C(C)C)c(O)cc(O)c3c(=O)c2c1CCC(C)(C)O`: the Activity result with L6 [1] is on record as “Non-Toxic”.

Regarding `CC(C)=CCc1cc(O)c(O)c2oc3cc(O)cc(O)c3c(=O)c12`, the Activity result with L6 [1] is recorded as “Non-Toxic”. Further, in the series with L6 [15], the outcome was inactive.

For `CC(C)=CCc1c(O)c(O)c2oc3c(CC=C(C)C)c(O)cc(O)c3c(=O)c2c1CC=C(C)C`, the Activity entry in the series on L6 [1] is reported as “Non-Toxic”.

With `C=CC(C)(C)c1cc(O)c2oc3c(O)cccc3c(=O)c2c1O`, the outcome (with L6 [18]; in the series on L6 [20]; in the series on L6 [5]; in the series with L6 [6]; in series [7]; in the series on L6 [10]) was Active. Also, the result (in series [13]; in the series with L6 [14]) was Active. Also, the Activity result is “Dose-dependent effect” in series [19], “Non-Toxic” in the series on L6 [1], “Non-Toxic” in the series with L6 [11] and 208.4% in the series on L6 [15]. Also, the outcome in the series on L6 [2], in the series with L6 [3], with L6 [12], in the series with L6 [16] and with L6 [17] was inactive.

On to `O=c1c2cccc(O)c2oc2ccc(O)c(O)c12`, for which, in the series on L6 [1], the Activity entry is reported as “Non-Toxic”.

Compound `CN(C)C(=N)NC(=N)N` [METFORMIN] returned an Activity in the series with L6 [21] of 167.2%. Also, in the series with L6 [22], the result was Active.

`CC1(C)C=Cc2c(c(O)c3oc4ccc(O)cc4c(=O)c3c2O)O1`: the Activity entry with L6 [1] is on record as “Non-Toxic”.

For the compound `CC1(C)C=Cc2c(cc3oc4c(O)cccc4c(=O)c3c2O)O1`, the Activity result in the series on L6 [1] was “Non-Toxic”.

For `COc1c(O)ccc2oc3c(O)cccc3c(=O)c12`, the Activity entry in the series on L6 [1] is reported as “Non-Toxic”.

Take `COc1c2c(c(O)c3c(=O)c4c(O)ccc(O)c4oc13)C=CC(C)(C)O2`: the Activity entry with L6 [1] is listed as “Non-Toxic”.

With `CC(C)=CCC/C(C)=C/Cc1cc2c(=O)c3c(O)cc(O)cc3oc2c(O)c1O`, the Activity entry with L6 [1] was “Non-Toxic”. Further, the result with L6 [15] was inactive.

Take `CC1(C)C=Cc2c(c(O)c3oc4c(O)ccc(O)c4c(=O)c3c2O)O1`: the Activity result in the series with L6 [1] was “Non-Toxic”. Moreover, the outcome in the series with L6 [15] was inactive.

`CC(C)=CCC/C(C)=C/Cc1c(O)c(O)c2oc3cc(O)cc(O)c3c(=O)c2c1CCC(C)(C)O`: the Activity entry with L6 [1] is given as “Non-Toxic”.

Turning to `CC(C)=CCc1c(O)c(O)c2oc3c4c(cc(O)c3c(=O)c2c1CC=C(C)C)OC(C)(C)C=C4`, the Activity entry in the series on L6 [1] was “Non-Toxic”; in the series on L6 [15], 195.28%.

Take `CC(C)=CCc1c(O)c(O)c2oc3c(O)ccc(O)c3c(=O)c2c1CC=C(C)C`: the Activity result in the series on L6 [1] is “Non-Toxic”.

In the case of `COc1c(O)c(CC=C(C)C)cc2c(=O)c3c(O)ccc(O)c3oc12`, the Activity entry with L6 [1] is recorded as “Non-Toxic”.

As to `COc1c(O)ccc2c(=O)c3c(O)ccc(OC)c3oc12`, the Activity result with L6 [1] is listed as “Non-Toxic”.

Regarding `CC(C)=CCc1c(O)cc(O)c2c(=O)c3cccc(O)c3oc12`, the Activity entry with L6 [1] was “Non-Toxic”.
